# Ends that are not written are not given here. Alexa555 = Alexa Fluor 555 thiol-reactive fluorophore
# Assays:
# [1] = tested on: HeLa cells transfected with the NK-1 receptor; test: delivery of a polynucleotide encoding GFP; format: cell-based, human; settings: 200 pM, FIG. 7
# Protocol: (§1) NK-1 receptor transfection: A plasmid coding for the human NK-1 receptor in the mammalian expression vector pCDNA3(+) (provided by Dr. Robert Lefkowitz, Duke University) was transfected into HeLa cells using Lipofectamine 2000 according to manufacturer protocol, with 1 ng of the plasmid for each well containing 10^4 HeLa cells seeded on an 18 mm cover-slip in a 12-well plate.
# To determine if other types of agents could also be delivered to cells expressing NK-1 receptors in accordance with the invention, HeLa cells transfected with the NK-1 receptor as described above, were incubated with an SP-polynucleotide conjugate. The polynucleotide encoded GFP operably linked to a promoter functional in the cells. The polynucleotide was also fluorescently tagged with Alexa-647 such that delivery of the polynucleotide into the cell could be monitored as well as expression of GFP.
# U87 glioblastoma cells [2] = test: confocal microscopy of internalization in U87 glioblastoma cells; format: cell-based, human; settings: FIG. 3b
# Protocol: (§2) Cell lines: U87 human glioblastoma-astrocytoma epithelial-like cells (provided by Prof. Maciej S. Lesniak, University of Chicago Medical Center) were cultured in MEM with penicillin/streptomycin and 10% FBS. Normal human astrocytes (NHA) were purchased from Lonza and cultured in astrocyte growth media (Lonza) supplemented with rhEGF; Insulin, Ascorbic Acid, GA-1000, L-Glutamine and 5% FBS. HeLa cells (provided by Dr. Ronald Rock, University of Chicago) were grown in DMEM pencillin/streptomycin and with 10% FBS.
# (§3) Confocal Microscopy: For each sample, 10^4 U87 cells were seeded on an 18 mm cover-slip in MEM with 10% FBS overnight in a 12-well plate, then starved in MEM with 0.1% BSA for 3 hrs. The reagent (SP-sAB conjugate, SP-Fluorophore or sAB only) was filter-sterilized, diluted to the desired final concentration in MEM 0.1% BSA and added directly to the live cells in each well for 2 hrs. Untreated cells served as a negative control. Following incubation with the reagent, the cells were washed with PBS and fixed in 4% p-formaldehyde. The cells were permeablized in TBS-Tween and blocked with 10% Normal Goat Serum for 1 hr. Actin filaments were stained with FITC-phalloidin (1:250 dilution), or TRITC-phalloidin (1:3000 dilution) for 1 hr at room temperature. Nuclei were stained with DAPI (10 μg/mL) or Hoechst reagent (Invitrogen, 1:2000) for 5 minutes at room temperature. […]
# [3] = tested on: HeLa cells transfected with a plasmid coding for the NK-1 receptor; test: confocal microscopy of NK-1 receptor-mediated internalization in transfected HeLa cells; format: cell-based, human
# Protocol: as §1
# Confocal Microscopy: For each sample, 10^4 U87 cells were seeded on an 18 mm cover-slip in MEM with 10% FBS overnight in a 12-well plate, then starved in MEM with 0.1% BSA for 3 hrs. The reagent (SP-sAB conjugate, SP-Fluorophore or sAB only) was filter-sterilized, diluted to the desired final concentration in MEM 0.1% BSA and added directly to the live cells in each well for 2 hrs. Untreated cells served as a negative control. Following incubation with the reagent, the cells were washed with PBS and fixed in 4% p-formaldehyde. The cells were permeablized in TBS-Tween and blocked with 10% Normal Goat Serum for 1 hr. Actin filaments were stained with FITC-phalloidin (1:250 dilution), or TRITC-phalloidin (1:3000 dilution) for 1 hr at room temperature. Nuclei were stained with DAPI (10 μg/mL) or Hoechst reagent (Invitrogen, 1:2000) for 5 minutes at room temperature. Samples were mounted using ProLong Gold reagent (Invitrogen). Confocal microscopy images were collected using a Leica SP2 with Alexa 488, Alexa 555 or Cy3 and […] or Cy5 excited with the 488 nm laser, the 543 nm laser and the 633 laser, respectively. Multicolored images were overlaid using the imageJ software.
# The ability to specifically deliver functional biomolecular agents to living cells can be a powerful research tool for studying molecular processes. Introduction of the NK-1 receptor is sufficient for the uptake of fluorescently-labeled SP. […] HeLa cells transfected with a plasmid coding for the NK-1 receptor were incubated for 2 hours with 20 nM fluorescently-labeled SP. The cells were then stained with phalloidin for visualization of actin structure.
# [4] = tested on: normal human astrocytes (NHA); test: confocal microscopy of internalization in normal human astrocytes; format: cell-based; settings: FIG. 3c
# Protocol: as §2, §3
# U87 glioblastoma cells [5] = test: MTS proliferation / cell viability assay; format: cell-based, human; settings: 10 nM or 20 nM, 48 hrs, FIG. 5a
# Protocol: MTS proliferation assay: U87 cells were seeded in 96-well plates at density 5000 cells/well in 0.1 mL of growth media. Cells were attached overnight and starved for 3 hours. Cells were stimulated with 20 nM sAB27-SP conjugate for 3, 5, 9, 24 and 48 hours, and SP or sAB27 alone for 48 hours in starving media. 20 μL of the MTS-based CellTiter 96 Aqueous One Solution reagent was added to each well. The plate was incubated in a humidified, 5% CO2 atmosphere until color was developed and the absorbance was recorded at 490 nm.
# Due to the actin-bundling activity of sAB-27, its effect on the viability of U87 glioblastoma cells following SP-mediated delivery was investigated. Live U87 cells were treated with either 10 nM or 20 nM of the SP-sAB-27 conjugate and a cell viability assay was carried out at different time points up to 48 hrs after treatment. The viability of cells incubated with the conjugates was compared with that of cells treated with SP alone or sAB-27 alone, as well as untreated cells.
substance,measurement,setting,value
"SP-polynucleotide conjugate: SP conjugated to an Alexa-647 tagged polynucleotide encoding GFP operably linked to a promoter (RPKPQQFFGLM; ends and bridges not checked; also: conjugated to Alexa-647 tagged GFP-encoding polynucleotide, site not given here; UniProt P20366 58-68, looked up)",internalization of the Alexa-647 tagged polynucleotide,[1]; 2 hours,internalized after 2 hours
same,localization of the internalized polynucleotide,[1]; 2 hours,at least a portion co-localized with the nucleus of the cell
same,expression of GFP,"[1]; 24 hours, confocal microscopy",expression of GFP after 24 hours
SP-Alexa555: variant of SP with a cysteine at position 3 carrying a thiol-reactive fluorophore; positive control for NK-1 receptor-mediated internalization (RPC(Alexa555)PQQFFGLM; ends and bridges not checked),internalization by U87 cells,U87 glioblastoma cells [2]; 100 nM (figure legend),internalization
same,internalization by U87 cells,"U87 glioblastoma cells [2]; 200 nM, 2 hr",readily internalize
same,internalization by transfected cells,"[3]; 20 nM, 2 hours, confocal microscopy",rapid internalization
same,effect on actin structure,"[3]; 100 nM, FITC-phalloidin, FIG. 2a,b",actin structure is unaffected
same,internalization by NHA,[4]; 100 nM (figure legend),no internalization was observed
same,internalization by normal astrocytes,"[4]; 200 nM, 2 hr",undetectable
"SP: 11-amino acid peptide that is rapidly internalized upon binding to the NK-1 receptor; used alone as control (RPKPQQFFGLM; ends and bridges not checked; UniProt P20366 58-68, looked up)",localization with actin / effect on actin structure,"[3]; 20 nM, phalloidin staining, FIG. 2",no specific localization with actin and no apparent effect on the structure of the actin filaments
same,cell viability,U87 glioblastoma cells [5],no effect on viability

# Source: patent publication US20130236966A1, “NK-1 Receptor Mediated Delivery of Agents to Cells” (THE UNIVERSITY OF CHICAGO, priority 2007, published 2013)
